Laboratory results taken from ChEMBL document CHEMBL3407375, “Substituted pyrrolidin-2-ones: Centrally acting orexin receptor antagonists promoting sleep. Part 2” (Bioorg Med Chem Lett, 2015).
pIC50: −log10 of the molar value.

Legend:
Orexin receptor type 2 = Orexin receptor type 2 (Homo sapiens, UniProt O43614); assay: Antagonist activity at human orexin 2 receptor expressed in CHO cells assessed as inhibition of orexin-A-induced calcium mobilization by FLIPR assay; assay type: functional, cell-based
Chain of Orexin receptor type 2 (O43614 whole entry, looked up): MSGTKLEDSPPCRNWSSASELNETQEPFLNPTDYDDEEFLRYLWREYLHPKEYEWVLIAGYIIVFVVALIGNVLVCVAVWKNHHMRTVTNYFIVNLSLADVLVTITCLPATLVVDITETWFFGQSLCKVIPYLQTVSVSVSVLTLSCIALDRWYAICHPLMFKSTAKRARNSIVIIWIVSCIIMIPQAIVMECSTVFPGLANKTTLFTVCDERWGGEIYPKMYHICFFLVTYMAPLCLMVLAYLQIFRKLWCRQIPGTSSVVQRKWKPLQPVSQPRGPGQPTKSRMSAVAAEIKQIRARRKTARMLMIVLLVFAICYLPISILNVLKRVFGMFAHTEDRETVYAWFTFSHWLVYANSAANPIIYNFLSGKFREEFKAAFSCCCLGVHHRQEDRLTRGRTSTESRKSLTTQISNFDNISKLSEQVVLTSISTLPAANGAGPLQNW

[1] = target: Orexin/Hypocretin receptor type 1 (Homo sapiens, UniProt O43613); assay: Antagonist activity at human orexin 1 receptor expressed in CHO cells assessed as inhibition of orexin-A-induced calcium mobilization by FLIPR assay; assay type: functional, cell-based
Chain of Orexin/Hypocretin receptor type 1 (O43613 whole entry, looked up): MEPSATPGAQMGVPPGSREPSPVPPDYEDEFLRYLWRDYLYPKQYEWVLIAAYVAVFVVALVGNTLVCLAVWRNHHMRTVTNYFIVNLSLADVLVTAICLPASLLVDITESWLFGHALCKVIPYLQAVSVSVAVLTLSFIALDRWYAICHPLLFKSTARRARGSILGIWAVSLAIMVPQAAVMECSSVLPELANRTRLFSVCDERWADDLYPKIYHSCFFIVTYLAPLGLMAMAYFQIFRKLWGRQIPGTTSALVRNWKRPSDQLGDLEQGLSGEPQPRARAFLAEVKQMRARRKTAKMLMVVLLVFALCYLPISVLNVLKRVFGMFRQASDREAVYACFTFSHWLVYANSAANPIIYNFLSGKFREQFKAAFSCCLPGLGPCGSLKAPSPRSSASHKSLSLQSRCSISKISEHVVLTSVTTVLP

[2] = Intrinsic metabolic clearance in human liver microsomes at 1 uM; assay type: ADME; details: read-out: CLH
Cytochrome P450 3A4 [3] = target: T1, Cytochrome P450 3A4 (Homo sapiens, UniProt P08684); assay: Inhibition of CYP3A4 (unknown origin) using testosterone as marker substrate; assay type: ADME
T1 sequence (P08684 whole entry): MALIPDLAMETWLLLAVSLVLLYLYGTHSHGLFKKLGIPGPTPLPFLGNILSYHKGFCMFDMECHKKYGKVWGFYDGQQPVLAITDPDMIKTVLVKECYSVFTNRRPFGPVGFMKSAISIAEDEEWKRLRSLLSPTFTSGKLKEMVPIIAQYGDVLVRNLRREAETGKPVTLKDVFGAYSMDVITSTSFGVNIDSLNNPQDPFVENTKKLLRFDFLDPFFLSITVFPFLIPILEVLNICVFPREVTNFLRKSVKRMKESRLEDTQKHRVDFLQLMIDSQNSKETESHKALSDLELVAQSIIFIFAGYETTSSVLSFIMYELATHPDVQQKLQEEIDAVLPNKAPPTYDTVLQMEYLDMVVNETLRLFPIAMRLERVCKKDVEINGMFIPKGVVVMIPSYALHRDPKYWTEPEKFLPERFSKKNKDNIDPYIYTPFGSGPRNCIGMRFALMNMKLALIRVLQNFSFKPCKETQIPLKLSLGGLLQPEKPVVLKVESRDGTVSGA

Rattus norvegicus [4] = assay: Induction of sleep in Wistar rat assessed as time spent in active wake at 100 mg/kg, po after 12 hrs (reference value: 30%); assay type: functional
Rattus norvegicus [5] = assay: Induction of sleep in Wistar rat assessed as time spent in quiet wake at 100 mg/kg, po after 12 hrs (reference value: 32.8%); assay type: functional
Rattus norvegicus [6] = assay: Induction of sleep in Wistar rat assessed as decrease in home cage activity at 100 mg/kg, po after 12 hrs relative to control; assay type: functional
Rattus norvegicus [7] = assay: Induction of sleep in Wistar rat assessed as time spent in non-REM sleep at 100 mg/kg, po after 12 hrs (reference value: 32.1%); assay type: functional
Rattus norvegicus [8] = assay: Induction of sleep in Wistar rat assessed as time spent in REM sleep at 100 mg/kg, po after 12 hrs (reference value: 4.7%); assay type: functional
[9] = Drug level in Wistar rat plasma at 100 mg/kg, po after 3 hrs; assay type: ADME, organism-based; design: dose 100 mg/kg, route oral
[10] = Ratio of drug level in brain to plasma in Wistar rat at 100 mg/kg, po afer 3 hrs; assay type: ADME, organism-based; design: dose 100 mg/kg, route oral; details: read-out: BPR
[11] = Drug level in Wistar rat brain measured per gram of tissue at 100 mg/kg, po after 3 hrs; assay type: ADME, organism-based; design: dose 100 mg/kg, route oral; details: read-out: Drug uptake
[12] = Plasma protein binding in Wistar rat at 100 mg/kg, po after 3 hrs; assay type: ADME, organism-based; design: dose 100 mg/kg, route oral; details: read-out: PPB
Rattus norvegicus [13] = assay: Induction of sleep in Wistar rat assessed as time spent in REM sleep at 100 mg/kg, po after 12 hrs (reference value: 6%); assay type: functional
Cytochrome P450 3A4 [14] = target: T1, Cytochrome P450 3A4; assay: Inhibition of CYP3A4 (unknown origin); assay type: ADME
Cytochrome P450 2C9 [15] = target: T2, Cytochrome P450 2C9 (Homo sapiens, UniProt P11712); assay: Time dependent inhibition of CYP2C9 (unknown origin); assay type: ADME
T2 sequence (P11712 whole entry): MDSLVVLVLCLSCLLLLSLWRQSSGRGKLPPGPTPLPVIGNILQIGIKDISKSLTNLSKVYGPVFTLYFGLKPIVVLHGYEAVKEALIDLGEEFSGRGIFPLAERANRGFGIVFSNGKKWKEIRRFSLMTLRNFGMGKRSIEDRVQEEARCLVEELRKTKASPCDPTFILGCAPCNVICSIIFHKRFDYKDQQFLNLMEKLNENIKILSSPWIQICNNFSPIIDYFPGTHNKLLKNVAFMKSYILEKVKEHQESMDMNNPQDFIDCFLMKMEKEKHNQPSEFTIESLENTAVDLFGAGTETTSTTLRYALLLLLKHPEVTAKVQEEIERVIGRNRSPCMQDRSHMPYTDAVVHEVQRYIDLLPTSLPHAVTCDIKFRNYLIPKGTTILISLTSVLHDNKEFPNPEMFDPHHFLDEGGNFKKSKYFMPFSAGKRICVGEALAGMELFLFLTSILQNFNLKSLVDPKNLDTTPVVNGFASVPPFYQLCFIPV

Rattus norvegicus [16] = assay: Induction of sleep in Wistar rat assessed as time spent in active wake at 100 mg/kg, po after 12 hrs (reference value: 44.6%); assay type: functional
Cytochrome P450 2D6 [17] = target: T3, Cytochrome P450 2D6 (Homo sapiens, UniProt P10635); assay: Inhibition of CYP2D6 (unknown origin); assay type: ADME
T3 sequence (P10635 whole entry): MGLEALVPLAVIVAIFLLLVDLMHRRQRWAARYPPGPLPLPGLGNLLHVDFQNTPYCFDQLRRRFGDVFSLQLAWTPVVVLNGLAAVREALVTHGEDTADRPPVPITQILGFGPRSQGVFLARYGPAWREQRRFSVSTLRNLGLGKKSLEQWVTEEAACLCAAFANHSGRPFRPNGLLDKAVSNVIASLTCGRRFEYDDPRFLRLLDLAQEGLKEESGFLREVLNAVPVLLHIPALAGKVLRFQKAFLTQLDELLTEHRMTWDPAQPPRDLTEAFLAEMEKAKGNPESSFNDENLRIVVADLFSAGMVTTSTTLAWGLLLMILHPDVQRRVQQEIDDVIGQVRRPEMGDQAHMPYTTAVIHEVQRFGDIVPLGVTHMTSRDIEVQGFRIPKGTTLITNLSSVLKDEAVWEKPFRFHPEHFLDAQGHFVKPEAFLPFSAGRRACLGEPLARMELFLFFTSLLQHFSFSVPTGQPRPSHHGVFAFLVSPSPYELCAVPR

Cytochrome P450 2D6 [18] = target: T3, Cytochrome P450 2D6; assay: Time dependent inhibition of CYP2D6 (unknown origin); assay type: ADME
Rattus norvegicus [19] = assay: Induction of sleep in Wistar rat assessed as increase in time spent in non-REM sleep at 100 mg/kg, po after 12 hrs relative to control; assay type: functional
[20] = Intrinsic metabolic clearance in rat liver microsomes at 1 uM; assay type: ADME; details: read-out: CLH
Cytochrome P450 3A4 [21] = target: T1, Cytochrome P450 3A4; assay: Time dependent inhibition of CYP3A4 (unknown origin); assay type: ADME
Cytochrome P450 2C9 [22] = target: T2, Cytochrome P450 2C9; assay: Inhibition of CYP2C9 (unknown origin); assay type: ADME
Rattus norvegicus [23] = assay: Induction of sleep in Wistar rat assessed as time spent in quiet wake at 100 mg/kg, po after 12 hrs (reference value: 19.5%); assay type: functional
MDR1 [24] = assay: Passive apparent permeability from basolateral to apical side in MDCK cells expressing human MDR1; assay type: ADME, cell-based, Canis lupus familiaris; details: dog
Rattus norvegicus [25] = assay: Induction of sleep in Wistar rat assessed as increase in time spent in REM sleep at 100 mg/kg, po after 12 hrs relative to control; assay type: functional
Rattus norvegicus [26] = assay: Induction of sleep in Wistar rat assessed as time spent in non-REM sleep at 100 mg/kg, po after 12 hrs (reference value: 29.8%); assay type: functional
Rattus norvegicus [27] = assay: Induction of sleep in Wistar rat assessed as decrease in time spent in active wake at 100 mg/kg, po after 12 hrs relative to control; assay type: functional
MDR1 [28] = assay: Passive apparent permeability from apical to basolateral side in MDCK cells expressing human MDR1; assay type: ADME, cell-based, Canis lupus familiaris; details: dog

## CN[C@@H]1C[C@@H](c2c(OC)cccc2OC)N(Cc2ccc(OC(F)(F)F)cc2)C1=O (racemic)
Orexin receptor type 2
  pIC50: 5.62
[1]
  pIC50: 5.24

## CC[C@H]1C[C@@H](c2c(OC)cccc2OC)N(Cc2ccc(OC(F)(F)F)cc2)C1=O (racemic)
[1]
  pIC50: 5.44

## COc1cccc(OC)c1[C@@H]1C[C@@H](C)C(=O)N1Cc1ccc(OC(F)(F)F)cc1 (racemic)
[2]
  microsomal CLint at 1 µM: 257 µL/min/mg

## COc1cccc(OC)c1[C@@H]1C[C@@H](O)C(=O)N1Cc1ccc2oc3ccccc3c2c1 (racemic)
[1]
  pIC50: 8.40
[2]
  microsomal CLint at 1 µM: 128 µL/min/mg

## COc1cccc(OC)c1C1CC(F)(F)C(=O)N1Cc1ccc(OC(F)(F)F)cc1 (racemic)
Cytochrome P450 3A4 [3]
  pIC50: 5.28
[2]
  microsomal CLint at 1 µM: 232 µL/min/mg

## COc1cccc(OC)c1[C@@H]1C[C@@H](OC)C(=O)N1Cc1ccc(OC(F)(F)F)cc1 (racemic)
[1]
  pIC50: 5.16

## COc1cccc(OC)c1[C@@H]1C[C@H](OC)C(=O)N1Cc1ccc(OC(F)(F)F)cc1 (racemic)
Cytochrome P450 3A4 [3]
  pIC50: 5.85
[1]
  pIC50: 6.77

## COc1cccc(OC)c1[C@@H]1C[C@H](F)C(=O)N1Cc1ccc2oc3ccccc3c2c1 (racemic)
Cytochrome P450 3A4 [3]
  pIC50: 5.06
[2]
  microsomal CLint at 1 µM: 363 µL/min/mg

## COc1cccc(OC)c1[C@@H]1C[C@H](Cl)C(=O)N1Cc1ccc(OC(F)(F)F)cc1 (racemic)
Cytochrome P450 3A4 [3]
  pIC50: 5.18
[1]
  pIC50: 7.39
[2]
  microsomal CLint at 1 µM: 277 µL/min/mg

## COc1cccc(OC)c1[C@@H]1C[C@H](C)C(=O)N1Cc1ccc(OC(F)(F)F)cc1 (racemic)
Cytochrome P450 3A4 [3]
  pIC50: 5.06

## CN[C@H]1C[C@@H](c2c(OC)cccc2OC)N(Cc2ccc(OC(F)(F)F)cc2)C1=O (racemic)
Orexin receptor type 2
  pIC50: 5.24
[1]
  pIC50: < 5.00

## CCO[C@H]1C[C@@H](c2c(OC)cccc2OC)N(Cc2ccc(OC(F)(F)F)cc2)C1=O (racemic)
Orexin receptor type 2
  pIC50: 5.40
[1]
  pIC50: < 5.00

## COc1cccc(F)c1[C@@H]1C[C@H](F)C(=O)N1Cc1ccc2oc3ccccc3c2c1 (racemic)
Cytochrome P450 3A4 [3]
  pIC50: 4.68
[2]
  microsomal CLint at 1 µM: 349 µL/min/mg

## CNC(=O)[C@@H](c1ccccc1)N1CCc2cc(OC)c(OC)cc2[C@@H]1CCc1ccc(C(F)(F)F)cc1 [ALMOREXANT]
Rattus norvegicus [4]
  Activity: 24%
Rattus norvegicus [5]
  Activity: 31%
Rattus norvegicus [6]
  inhibition in vivo at 100 mg/kg: 43%
Rattus norvegicus [7]
  Activity: 38.5%
Rattus norvegicus [8]
  Activity: 6.5%

## COc1cccc(OC)c1[C@@H]1C[C@H](N)C(=O)N1Cc1ccc(OC(F)(F)F)cc1 (racemic)
Orexin receptor type 2
  pIC50: 5.15
[1]
  pIC50: 5.02

## COc1cccc(OC)c1[C@@H]1C[C@@H](N(C)C)C(=O)N1Cc1ccc(OC(F)(F)F)cc1 (racemic)
Orexin receptor type 2
  pIC50: 5.44
[1]
  pIC50: < 5.00

## COc1cccc(F)c1C1C[C@@H](O)C(=O)N1Cc1ccc2oc3ccccc3c2c1 (mixture of isomers)
Cytochrome P450 3A4 [3]
  pIC50: 4.34
[2]
  microsomal CLint at 1 µM: 96 µL/min/mg

## COc1cccc(OC)c1C1CCC(=O)N1Cc1ccc2oc3ccccc3c2c1 (racemic)
Cytochrome P450 3A4 [3]
  pIC50: 5.16
[2]
  microsomal CLint at 1 µM: 577 µL/min/mg

## COc1cccc(OC)c1[C@@H]1C[C@@H](Cl)C(=O)N1Cc1ccc(OC(F)(F)F)cc1 (racemic)
[1]
  pIC50: 6.25

## COc1cccc(OC)c1[C@@H]1C[C@@H](O)C(=O)N1Cc1ccc(OC(F)(F)F)cc1 (racemic)
Cytochrome P450 3A4 [3]
  pIC50: 4.60
[2]
  microsomal CLint at 1 µM: 142 µL/min/mg

## COc1cccc(OC)c1[C@@H]1C[C@H](Cl)C(=O)N1Cc1ccc2oc3ccccc3c2c1 (racemic)
[1]
  pIC50: 8.30

## COc1cccc(OC)c1[C@@H]1C[C@H](N(C)C)C(=O)N1Cc1ccc(OC(F)(F)F)cc1 (racemic)
Orexin receptor type 2
  pIC50: 5.06
[1]
  pIC50: 5.08

## COc1cccc(OC)c1[C@@H]1C[C@@H](N)C(=O)N1Cc1ccc(OC(F)(F)F)cc1 (racemic)
Orexin receptor type 2
  pIC50: 5.70
[1]
  pIC50: 5.69

## COc1cccc(OC)c1[C@@H]1C[C@H](F)C(=O)N1Cc1ccc(OC(F)(F)F)cc1 (racemic)
[9]
  concentration at 3 h: 87 ng/mL
[10]
  Kp at 3 h: 3.1
[2]
  microsomal CLint at 1 µM: 233 µL/min/mg
[11]
  concentration at 3 h: 270 ng/g
[12]
  fraction unbound at 3 h: 0.01

## COc1cccc(F)c1[C@@H]1C[C@@H](O)C(=O)N1Cc1ccc2oc3ccccc3c2c1
Rattus norvegicus [13]
  Activity: 7.1%
Cytochrome P450 3A4 [14]
  pIC50: < 4.30
Cytochrome P450 2C9 [15]
  TDI: Not Active
[10]
  Kp at 3 h: 2.3
Cytochrome P450 3A4 [3]
  pIC50: < 4.30
Rattus norvegicus [16]
  Activity: 39.2%
Cytochrome P450 2D6 [17]
  pIC50: 4.33
Cytochrome P450 2D6 [18]
  TDI: Not Active
Rattus norvegicus [19]
  Activity: 20%
[20]
  microsomal CLint at 1 µM: > 1250 µL/min/mg
Cytochrome P450 3A4 [21]
  TDI: Not Active
Cytochrome P450 2C9 [22]
  pIC50: 5.03
Rattus norvegicus [6]
  inhibition in vivo at 100 mg/kg: 35%
Rattus norvegicus [23]
  Activity: 19.2%
MDR1 [24]
  Papp B→A: 26.6 ×10⁻⁶ cm/s
Rattus norvegicus [25]
  Activity: 38%
[2]
  microsomal CLint at 1 µM: 102 µL/min/mg
Rattus norvegicus [26]
  Activity: 34.4%
[11]
  concentration at 3 h: 585 ng/g
Rattus norvegicus [27]
  inhibition in vivo at 100 mg/kg: 20%
MDR1 [28]
  Papp A→B: 12.5 ×10⁻⁶ cm/s
